Results taken from ChEMBL document CHEMBL2331280, “Cytotoxic, antitopoisomerase IIα, and anti-HIV-1 activities of triterpenoids isolated from leaves and twigs of Gardenia carinata” (J Nat Prod, 2013).
Activity calls are given as the source filed them. The calls are words filed in the database; no cut-off is given here.

Experiments:
[1] = Cytotoxicity against human 1A2 cells assessed as inhibition of metabolic activity by XTT assay; format: ADME, cell-based
[2] = tested on: Lu1; assay: Cytotoxicity against human Lu1 cells after 72 hrs by sulforhodamine B assay; format: functional; conditions: Lu1, 72 h, read-out: ED50 (the source's name)
[3] = tested on: Human immunodeficiency virus 1; assay: Antiviral activity against deltaTat/rev deffective HIV-1 MC99 infected in human 1A2 cells assessed as inhibition of syncytia formation after 3 days; format: functional, organism-based; conditions: Human immunodeficiency virus 1, MC99, 1A2, 72 h
[4] = biological target: Human immunodeficiency virus type 1 reverse transcriptase (Human immunodeficiency virus 1) (UniProt Q72547); assay: Inhibition of HIV-1 reverse transcriptase assessed as decrease in incorporation of [3H]TTP into polyA template at 200 ug/ml
[5] = tested on: P388; assay: Cytotoxicity against mouse P388 cells after 48 hrs by sulforhodamine B assay; format: functional; conditions: P388, 48 h, read-out: ED50 (the source's name)
[6] = tested on: HEK293; assay: Cytotoxicity against human HEK293 cells after 72 hrs by sulforhodamine B assay; format: functional; conditions: HEK293, 72 h, read-out: ED50 (the source's name)
[7] = Cytotoxicity against rat ASK cells after 72 hrs by sulforhodamine B assay; format: functional; conditions: read-out: ED50 (the source's name)
[8] = tested on: Col2; assay: Cytotoxicity against human Col2 cells after 72 hrs by sulforhodamine B assay; format: functional; conditions: Col2, 72 h, read-out: ED50 (the source's name)
[9] = tested on: MCF7; assay: Cytotoxicity against human MCF7 cells after 72 hrs by sulforhodamine B assay; format: functional; conditions: MCF7, 72 h, read-out: ED50 (the source's name)
[10] = tested on: KB; assay: Cytotoxicity against human KB cells after 72 hrs by sulforhodamine B assay; format: functional; conditions: read-out: ED50 (the source's name)
[11] = Selectivity index, ratio of IC50 for human 1A2 cells to EC50 for deltaTat/rev deffective HIV-1 MC99 infected in human 1A2 cells; format: toxicity, cell-based; conditions: read-out: Ratio IC50/EC50
[12] = biological target: DNA topoisomerase 2-alpha (Homo sapiens) (UniProt P11388); assay: Inhibition of human DNA topoisomerase 2 alpha-mediated supercoiled pBR322 DNA relaxation at 20 uM after 1 hr by agarose gel electrophoresis
Chain of DNA topoisomerase 2-alpha (Homo sapiens) (P11388 whole entry): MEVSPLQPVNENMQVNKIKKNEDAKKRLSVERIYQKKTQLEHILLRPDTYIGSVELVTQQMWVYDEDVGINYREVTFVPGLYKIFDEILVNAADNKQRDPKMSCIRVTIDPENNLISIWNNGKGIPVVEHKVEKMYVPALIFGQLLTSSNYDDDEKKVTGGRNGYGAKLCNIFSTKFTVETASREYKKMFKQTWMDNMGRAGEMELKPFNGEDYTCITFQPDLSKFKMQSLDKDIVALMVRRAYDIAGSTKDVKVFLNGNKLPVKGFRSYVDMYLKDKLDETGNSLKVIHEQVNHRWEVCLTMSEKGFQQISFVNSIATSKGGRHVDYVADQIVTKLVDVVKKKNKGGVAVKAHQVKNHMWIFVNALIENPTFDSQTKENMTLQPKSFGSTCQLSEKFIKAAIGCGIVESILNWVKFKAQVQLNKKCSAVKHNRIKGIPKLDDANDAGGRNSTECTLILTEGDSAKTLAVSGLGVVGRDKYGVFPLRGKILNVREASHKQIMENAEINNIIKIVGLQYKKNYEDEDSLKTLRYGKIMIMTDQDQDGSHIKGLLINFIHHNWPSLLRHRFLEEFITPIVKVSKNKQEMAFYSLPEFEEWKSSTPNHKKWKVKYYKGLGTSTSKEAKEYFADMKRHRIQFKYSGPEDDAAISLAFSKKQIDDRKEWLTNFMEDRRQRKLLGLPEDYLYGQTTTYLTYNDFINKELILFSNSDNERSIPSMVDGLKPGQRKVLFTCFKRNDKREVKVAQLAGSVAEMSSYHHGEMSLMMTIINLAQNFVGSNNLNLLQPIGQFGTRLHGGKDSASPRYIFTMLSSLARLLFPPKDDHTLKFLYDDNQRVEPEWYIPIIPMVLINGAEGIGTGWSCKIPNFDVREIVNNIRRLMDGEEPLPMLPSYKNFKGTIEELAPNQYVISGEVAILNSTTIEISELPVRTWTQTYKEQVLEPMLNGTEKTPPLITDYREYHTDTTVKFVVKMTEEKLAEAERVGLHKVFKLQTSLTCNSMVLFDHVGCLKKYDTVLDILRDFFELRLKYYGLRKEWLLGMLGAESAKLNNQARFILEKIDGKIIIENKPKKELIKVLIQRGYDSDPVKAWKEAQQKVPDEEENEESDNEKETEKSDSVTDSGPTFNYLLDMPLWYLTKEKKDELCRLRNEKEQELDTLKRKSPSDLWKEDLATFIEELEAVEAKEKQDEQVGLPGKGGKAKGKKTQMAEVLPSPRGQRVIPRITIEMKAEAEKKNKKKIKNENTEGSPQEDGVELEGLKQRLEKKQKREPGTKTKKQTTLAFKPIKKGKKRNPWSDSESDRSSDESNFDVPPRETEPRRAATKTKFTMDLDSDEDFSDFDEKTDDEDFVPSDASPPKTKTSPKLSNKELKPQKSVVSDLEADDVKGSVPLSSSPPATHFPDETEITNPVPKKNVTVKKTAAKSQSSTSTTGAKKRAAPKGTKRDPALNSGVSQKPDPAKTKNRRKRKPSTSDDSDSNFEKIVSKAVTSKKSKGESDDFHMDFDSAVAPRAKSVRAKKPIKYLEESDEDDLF

[13] = biological target: Human immunodeficiency virus type 1 reverse transcriptase (Human immunodeficiency virus 1, UniProt Q72547); assay: Inhibition of HIV-1 reverse transcriptase assessed as decrease in incorporation of [3H]TTP into polyA template

CC(C)CC(=O)C[C@@H](C)[C@H]1CC[C@@]2(C)[C@@H]3CC[C@H]4[C@](C)(C(=O)O)[C@@H](O)C[C@H](O)[C@@]45C[C@@]35CC[C@]12C [CARINATIN A]
IC50 [1]: 27 µM
EC50 [2]: > 10 µM
EC50 [3]: 15.4 µM
inhibition [4]: 6%
EC50 [5]: > 10 µM
EC50 [6]: > 10 µM
EC50 [7]: > 10 µM
EC50 [8]: > 10 µM
EC50 [9]: > 10 µM
EC50 [10]: > 10 µM
selectivity ratio [11]: 1.8

CC(C)CC(=O)C[C@@H](C)[C@H]1CC[C@@]2(C)[C@@H]3CC[C@H]4[C@](C)(C(=O)O)[C@@H](O)CC[C@@]45C[C@@]35CC[C@]12C (relative stereo)
IC50 [1]: 72.5 µM
EC50 [2]: > 10 µM
EC50 [3]: 62.7 µM
inhibition [4]: 1.9%
inhibition [12]: Active
EC50 [5]: 6.8 µM
EC50 [6]: > 10 µM
EC50 [7]: > 10 µM
EC50 [8]: > 10 µM
EC50 [9]: > 10 µM
EC50 [10]: > 10 µM
selectivity ratio [11]: 1.2

C=C1COC(=O)CC[C@]23C[C@]24CC[C@]2(C)[C@@H]([C@H](C)CC(=O)C=C(C)C)CC[C@@]2(C)[C@@H]4CC[C@@H]13 (relative stereo)
IC50 [1]: > 138 µM
EC50 [2]: > 10 µM
EC50 [3]: 41.3 µM
inhibition [4]: 11.6%
EC50 [5]: > 10 µM
EC50 [6]: > 10 µM
EC50 [7]: > 10 µM
EC50 [8]: > 10 µM
EC50 [9]: > 10 µM
EC50 [10]: > 10 µM
selectivity ratio [11]: > 3.4

C=C(C(=O)O)[C@@H]1CC[C@@H]2[C@]3(CC[C@]4(C)[C@@H]([C@H](C)CC(=O)C=C(C)C)CC[C@@]24C)C[C@]13CCC(=O)O
IC50 [1]: 57.7 µM
EC50 [2]: > 10 µM
EC50 [3]: < 8.3 µM
inhibition [4]: 88.1%
IC50 [13]: 68.7 µM
EC50 [5]: > 10 µM
EC50 [6]: > 10 µM
EC50 [7]: > 10 µM
EC50 [8]: > 10 µM
EC50 [9]: > 10 µM
EC50 [10]: > 10 µM
selectivity ratio [11]: > 7

C=C(C(=O)O)[C@@H]1CC[C@@H]2[C@]3(CC[C@]4(C)[C@@H]([C@H](C)CC(=O)C=C(C)C)CC[C@@]24C)C[C@]13CCC(=O)OC (relative stereo)
IC50 [1]: 69.5 µM
EC50 [2]: > 10 µM
EC50 [3]: 43 µM
inhibition [4]: 63.7%
EC50 [5]: > 10 µM
EC50 [6]: > 10 µM
EC50 [7]: > 10 µM
EC50 [8]: > 10 µM
EC50 [9]: > 10 µM
EC50 [10]: > 10 µM
selectivity ratio [11]: 1.6

C=C1C(=O)O[C@@H]2C[C@@H]3[C@]4(CC[C@]5(C)[C@@H]([C@H](C)CC(=O)C=C(C)C)CC[C@@]35C)C[C@]4(CCC(=O)O)[C@H]12 (relative stereo)
IC50 [1]: < 8.1 µM
EC50 [2]: > 10 µM
inhibition [4]: 81.2%
IC50 [13]: 85.7 µM
inhibition [12]: Active
EC50 [5]: 2.9 µM
EC50 [6]: 5.2 µM
EC50 [7]: > 10 µM
EC50 [8]: > 10 µM
EC50 [9]: 7.7 µM
EC50 [10]: 7.3 µM

Cc1cn([C@H]2C[C@H](N=[N+]=[N-])[C@@H](CO)O2)c(=O)[nH]c1=O [ZIDOVUDINE]
IC50 [1]: > 10000 µM
EC50 [3]: 0.00395 µM

C=C1C(=O)O[C@@H]2C[C@@H]3[C@]4(CC[C@]5(C)[C@@H]([C@H](C)CC(=O)CC(C)(C)O)CC[C@@]35C)C[C@]4(CCC(=O)OC)[C@H]12 (relative stereo)
IC50 [1]: < 15.2 µM
EC50 [2]: 7.2 µM
inhibition [4]: 35.9%
inhibition [12]: Active
EC50 [5]: 1.4 µM
EC50 [6]: 4.1 µM
EC50 [7]: 5.8 µM
EC50 [8]: 6.2 µM
EC50 [9]: 5.2 µM
EC50 [10]: 6.8 µM

C=C1C(=O)O[C@@H]2C[C@@H]3[C@]4(CC[C@]5(C)[C@@H]([C@H](C)CC(=O)C=C(C)C)CC[C@@]35C)C[C@]4(CCC(=O)OC)[C@H]12 [SECAUBRYOLIDE]
IC50 [1]: < 7.9 µM
EC50 [2]: 5 µM
inhibition [4]: 0.4%
inhibition [12]: Active
EC50 [5]: 1 µM
EC50 [6]: 3.2 µM
EC50 [7]: 4.6 µM
EC50 [8]: 5.8 µM
EC50 [9]: 4.2 µM
EC50 [10]: 2 µM

COc1cc([C@@H]2c3cc4c(cc3[C@@H](O[C@@H]3O[C@@H]5CO[C@@H](C)O[C@H]5[C@H](O)[C@H]3O)[C@H]3COC(=O)[C@H]23)OCO4)cc(OC)c1O
inhibition [12]: 59%

C=C(CO)[C@@H]1CC[C@@H]2[C@H](CC[C@]3(C)[C@@H]([C@H](C)CC(=O)C=C(C)C)CC[C@@]23C)C[C@]12CCC(=O)O2 [CARINATIN G]
IC50 [1]: 46 µM
EC50 [2]: > 10 µM
EC50 [3]: 13.4 µM
inhibition [4]: 25.5%
inhibition [12]: Active
EC50 [5]: 4.9 µM
EC50 [6]: > 10 µM
EC50 [7]: > 10 µM
EC50 [8]: > 10 µM
EC50 [9]: > 10 µM
EC50 [10]: > 10 µM
selectivity ratio [11]: 3.4

Cc1c2ccncc2c(C)c2c1[nH]c1ccccc12 [ELLIPTECINE]
EC50 [2]: 1.1 µM
EC50 [5]: 1.9 µM
EC50 [6]: 1.9 µM
EC50 [7]: 2.2 µM
EC50 [8]: 2.2 µM
EC50 [9]: 2.3 µM
EC50 [10]: 2.2 µM

COc1cc2c(ccc3c4cc(OC)c(OC)cc4c[n+](C)c23)cc1O [FAGARONINE]
IC50 [13]: 26.5 µM
